Experimental data published in ChEMBL document CHEMBL1143555, “Development of low molecular weight HIV-1 protease dimerization inhibitors” (J Med Chem, 2005).

target: Human immunodeficiency virus type 1 protease (Human immunodeficiency virus 1) (UniProt Q72874); test: Percent inhibition of human immunodeficiency virus-1 protease after 1 uM treatment

Q: With `CC[C@H](C)[C@@H](NC(=O)C(CC1CC1)NC(=O)CCCCCCCCCCCCCCC(=O)N[C@H](CC(=O)N[C@@H](Cc1ccccc1)C(=O)O)C(N)=O)C(=O)N[C@@H](Cc1ccccc1)C(N)=O` (stereo not given in full) as the compound, how does the inhibition read?
A: 32%

Q: How did the inhibition turn out when `CC[C@H](C)[C@@H](NC(=O)C(C)(C)NC(=O)CCCCCCCCCCCCCCC(=O)N[C@H](CC(=O)N[C@@H](Cc1ccccc1)C(=O)O)C(N)=O)C(=O)N[C@@H](Cc1ccccc1)C(N)=O` was run?
A: 7%

Q: For `CC[C@H](C)[C@@H](NC(=O)CCCCNC(=O)CCCCCCCCCCCCCCC(=O)N[C@H](CC(=O)N[C@@H](Cc1ccccc1)C(=O)O)C(N)=O)C(=O)N[C@@H](Cc1ccccc1)C(N)=O`, which inhibition is on record?
A: 12%

Q: With `CC(O)[C@H](NC(=O)CCCCCCCCCCCCCCC(=O)N[C@H](CC(=O)N[C@@H](Cc1ccccc1)C(=O)O)C(N)=O)C(=O)N[C@H](CC1CCCCC1)C(=O)N[C@@H](Cc1ccccc1)C(N)=O` (stereo not given in full) as the compound, how does the inhibition read?
A: 30%

Q: With `CCC(C)[C@H](NC(=O)CCCCCCCCCCCCCCC(=O)N[C@@H](CC(N)=O)C(=O)NC(Cc1ccc(O)cc1)C(=O)O)C(=O)N[C@H](Cc1ccccc1)C(N)=O` (stereo not given in full) as the compound, how does the inhibition read?
A: 15%

Q: For `CCC(C)[C@@H](NC(=O)[C@@H](NC(=O)CCCCCCCCCCCCCCC(=O)N[C@H](CC(=O)N[C@@H](Cc1ccccc1)C(=O)O)C(N)=O)C(C)O)C(=O)Nc1ccc(C(N)=O)cc1` (stereo not given in full), which inhibition is on record?
A: 36%

Q: With `CC[C@H](C)[C@@H](NC(=O)c1cccc(CNC(=O)CCCCCCCCCCCCCCC(=O)N[C@H](CC(=O)N[C@@H](Cc2ccccc2)C(=O)O)C(N)=O)c1)C(=O)N[C@@H](Cc1ccccc1)C(N)=O` as the compound, how does the inhibition read?
A: 10%

Q: For `CC(O)[C@H](NC(=O)CCCCCCCCCCCCCCC(=O)N[C@H](CC(=O)N[C@@H](Cc1ccccc1)C(=O)O)C(N)=O)C(=O)N[C@@H](C(=O)N[C@@H](Cc1ccccc1)C(N)=O)C1CCCCC1` (stereo not given in full), which inhibition is on record?
A: 45%

Q: Which inhibition does the source give for `CC[C@H](C)[C@@H](NC(=O)C(CC1CCCC1)NC(=O)CCCCCCCCCCCCCCC(=O)N[C@H](CC(=O)N[C@@H](Cc1ccccc1)C(=O)O)C(N)=O)C(=O)N[C@@H](Cc1ccccc1)C(N)=O` (stereo not given in full) here?
A: 13%

target: Human immunodeficiency virus type 1 protease (Human immunodeficiency virus 1, UniProt Q72874); test: Inhibitory concentration against human immunodeficiency virus-1 protease; (competitive inhibitor)

Q: `CC(O)[C@H](NC(=O)CCCCCCCCCCCCCCC(=O)N[C@H](CC(=O)N[C@@H](Cc1ccccc1)C(=O)O)C(N)=O)C(=O)N[C@@H](Cc1ccccc1)C(N)=O` (stereo not given in full) was tested. Which IC50 did it give?
A: 11 µM
